Results reported in patent US8153104B2, “Pharmaceutical formulations for dry powder inhalers comprising a low-dosage strength active ingredient” (Chiesi Farmaceutici S.p.A., priority 2005, dated 2012).
Structures can show the parent of a compound that is named as a salt.

Test: Particle size of microparticles by laser diffraction analysis
Type: physicochemical
Conditions: starting material of Example 2
Procedure: The particle size of the obtained microparticles was determined by laser diffraction analysis. The parameters taken into consideration were: i) the VD in micron of 10%, 50%, and 90% of the particles expressed as d(v, 0.1), d(v, 0.5) and d(v, 0.9), respectively, which correspond to the mass diameter assuming a size independent density for the particles. ii) the polydispersity of the powder, i.e. the width of the particle size distribution which is expressed by the span (span=[d(v, 0.9)−d(v, 0.1)]/d (v, 0.5)—according to Chew N Y et al J Pharm Pharmaceut Sci 2002, 5, 162-168).
The agglomerates were isolated by sieving and their particle size distribution determined by laser diffraction analysis.
The microparticles were characterised in terms of particle size (laser diffraction analysis) and uniformity of distribution of the active ingredient.

MMD of micronised active ingredient: 1.8 micron
Structure (SMILES): COc1ccc(C[C@@H](C)NC[C@H](O)c2ccc(O)c3[nH]c(=O)ccc23)cc1 [CHF 4226 hydrochloride, 8-hydroxy-5-[(1R)-1-hydroxy-2-[[(1R)-2-(4-methoxyphenyl)-1-methylethyl]amino]ethyl-2(1H)-quinolinone hydrochloride]
